Test results taken from PubChem BioAssay AID1259407 (Chemical Carcinogenesis Research Information System (CCRIS), 2018).
Activity calls are given as the source filed them. No rule for the calls is given here.

System: CCRIS mutagenicity, Ames/micronucleus/aberration tests
Experiment: CCRIS mutagenicity studies
[1] = Test System: AMES SALMONELLA TYPHIMURIUM, Strain/Indicator: TA97, Metabolic Activation: NONE, Method: PREINCUBATION
[2] = Test System: AMES SALMONELLA TYPHIMURIUM, Strain/Indicator: TA98, Metabolic Activation: NONE, Method: PREINCUBATION
[3] = Test System: AMES SALMONELLA TYPHIMURIUM, Strain/Indicator: TA1535, Metabolic Activation: NONE, Method: PREINCUBATION
[4] = Test System: AMES SALMONELLA TYPHIMURIUM, Strain/Indicator: TA98, Metabolic Activation: NONE, Method: STANDARD PLATE
[5] = Test System: AMES SALMONELLA TYPHIMURIUM, Strain/Indicator: TA98, Metabolic Activation: RAT, LIVER, S-9, AROCLOR 1254, Method: STANDARD PLATE
[6] = Test System: AMES SALMONELLA TYPHIMURIUM, Strain/Indicator: TA100, Metabolic Activation: NONE, Method: STANDARD PLATE
[7] = Test System: AMES SALMONELLA TYPHIMURIUM, Strain/Indicator: TA100, Metabolic Activation: RAT, LIVER, S-9, AROCLOR 1254, Method: STANDARD PLATE
[8] = Test System: AMES SALMONELLA TYPHIMURIUM, Strain/Indicator: TA1535, Metabolic Activation: NONE, Method: STANDARD PLATE
[9] = Test System: AMES SALMONELLA TYPHIMURIUM, Strain/Indicator: TA1535, Metabolic Activation: RAT, LIVER, S-9, AROCLOR 1254, Method: STANDARD PLATE
[10] = Test System: AMES SALMONELLA TYPHIMURIUM, Strain/Indicator: TA1537, Metabolic Activation: NONE, Method: STANDARD PLATE
[11] = Test System: AMES SALMONELLA TYPHIMURIUM, Strain/Indicator: TA1537, Metabolic Activation: RAT, LIVER, S-9, AROCLOR 1254, Method: STANDARD PLATE
[12] = Test System: AMES SALMONELLA TYPHIMURIUM, Strain/Indicator: TA1538, Metabolic Activation: NONE, Method: STANDARD PLATE
[13] = Test System: AMES SALMONELLA TYPHIMURIUM, Strain/Indicator: TA100, Metabolic Activation: NONE, Method: PREINCUBATION
[14] = Test System: AMES SALMONELLA TYPHIMURIUM, Strain/Indicator: TA98, Metabolic Activation: RAT LIVER S-9, AROCLOR 1254, Method: STANDARD PLATE

Measured: mutagenic call

O[C@H]1[C@H]2O[C@H]2C=C[C@@H]1O
inactive: [1] inactive; negative | [2] inactive; negative
active: [3] active; positive

CC(=O)Oc1ccccc1C(=O)Oc1ccccc1C(=O)O
inactive: Test System: AMES SALMONELLA TYPHIMURIUM, Strain/Indicator: TA97, Metabolic Activation: NONE, Method: STANDARD PLATE inactive; negative | Test System: AMES SALMONELLA TYPHIMURIUM, Strain/Indicator: TA97, Metabolic Activation: RAT, LIVER, S-9, AROCLOR 1254, Method: STANDARD PLATE inactive; negative | [4] inactive; negative | [5] inactive; negative | [6] inactive; negative | [7] inactive; negative | [8] inactive; negative | [9] inactive; negative | [10] inactive; negative | [11] inactive; negative | [12] inactive; negative | Test System: AMES SALMONELLA TYPHIMURIUM, Strain/Indicator: TA1538, Metabolic Activation: RAT, LIVER, S-9, AROCLOR 1254, Method: STANDARD PLATE inactive; negative

CC1CN(/N=C/c2ccc([N+](=O)[O-])o2)C(=O)N1 (stereo unspecified)
active: Test System: AMES SALMONELLA TYPHIMURIUM, Strain/Indicator: TA100, Metabolic Activation: RAT, LIVER, S-9, KC500 OR PHENOBARBITAL, Method: LIQUID SUSPENSION active; positive

C=CC(=O)N(CC1CO1)CC1CO1 (stereo unspecified)
active: [2] active; positive | [4] active; positive | [5] active; positive | [13] active; positive | [6] active; positive | Test System: AMES SALMONELLA TYPHIMURIUM, Strain/Indicator: TA100, Metabolic Activation: RAT, LIVER, S-9, AROCLOR 1254, Method: PREINCUBATION active; positive | [7] active; positive
inactive: Test System: AMES SALMONELLA TYPHIMURIUM, Strain/Indicator: TA98, Metabolic Activation: RAT, LIVER, S-9, AROCLOR 1254, Method: PREINCUBATION inactive; negative

COC1=CC(=O)c2c(ncc3c4c([nH]c23)CCCC4)C1=O
inactive: Test System: AMES SALMONELLA TYPHIMURIUM, Strain/Indicator: TA102, Metabolic Activation: NONE, Method: STANDARD PLATE inactive; negative | Test System: AMES SALMONELLA TYPHIMURIUM, Strain/Indicator: TA102, Metabolic Activation: RAT LIVER S-9, AROCLOR 1254, Method: STANDARD PLATE inactive; negative
active: Test System: AMES SALMONELLA TYPHIMURIUM, Strain/Indicator: TA97A, Metabolic Activation: NONE, Method: STANDARD PLATE active; positive | Test System: AMES SALMONELLA TYPHIMURIUM, Strain/Indicator: TA97A, Metabolic Activation: RAT LIVER S-9, AROCLOR 1254, Method: STANDARD PLATE active; positive | [4] active; positive | [14] active; positive | [6] active; positive | Test System: AMES SALMONELLA TYPHIMURIUM, Strain/Indicator: TA100, Metabolic Activation: RAT LIVER S-9, AROCLOR 1254, Method: STANDARD PLATE active; positive

CCN(CC)c1ccc(N=Nc2ccc([N+](=O)[O-])cc2C#N)cc1
active: [4] active; positive | [5] active; positive | [6] active; positive | [7] active; positive | [10] active; positive | [11] active; positive
inactive: [8] inactive; negative | [9] inactive; negative | Test System: CHINESE HAMSTER OVARY, Strain/Indicator: CHO (HGPRT)/6-THIOGUANINE, Metabolic Activation: NONE inactive; negative | Test System: CHINESE HAMSTER OVARY, Strain/Indicator: CHO (HGPRT)/6-THIOGUANINE, Metabolic Activation: RAT, LIVER, S-9, AROCLOR 1254 inactive; negative | Test System: UDS RAT HEPATOCYTES, Strain/Indicator: THY INCORP, Metabolic Activation: NONE, Method: AUTORADIOGRAPHY inactive; negative

Nc1ccc2ccc3ccccc3c2c1
active: Test System: AMES SALMONELLA TYPHIMURIUM, Strain/Indicator: TA98, Metabolic Activation: RAT, LIVER, S-9, AROCLOR 1254 (2 OR 4%), Method: STANDARD PLATE active; positive | Test System: AMES SALMONELLA TYPHIMURIUM, Strain/Indicator: TA100, Metabolic Activation: RAT, LIVER, S-9, AROCLOR 1254 (2%), Method: STANDARD PLATE active; positive | Test System: AMES SALMONELLA TYPHIMURIUM, Strain/Indicator: TA1535, Metabolic Activation: RAT, LIVER, S-9, AROCLOR 1254 (2%), Method: STANDARD PLATE active; positive | Test System: AMES SALMONELLA TYPHIMURIUM, Strain/Indicator: TA1537, Metabolic Activation: RAT, LIVER, S-9, AROCLOR 1254 (2%), Method: STANDARD PLATE active; positive

COc1ccc(N=Nc2ccc(N(C)C)cc2)cc1
active: [4] active; positive | [14] active; positive | [12] active; positive | Test System: AMES SALMONELLA TYPHIMURIUM, Strain/Indicator: TA1538, Metabolic Activation: RAT LIVER S-9, AROCLOR 1254, Method: STANDARD PLATE active; positive

O=C1C=Cc2c(ccc3ccccc23)C1=O
active: Test System: AMES SALMONELLA TYPHIMURIUM, Strain/Indicator: TA104, Metabolic Activation: NONE, Method: PREINCUBATION active; positive
inactive: Test System: AMES SALMONELLA TYPHIMURIUM, Strain/Indicator: TA97A, Metabolic Activation: NONE, Method: PREINCUBATION inactive; negative | [2] inactive; negative | [13] inactive; negative | Test System: AMES SALMONELLA TYPHIMURIUM, Strain/Indicator: TA102, Metabolic Activation: NONE, Method: PREINCUBATION inactive; negative

c1ccc(-c2ccc(OCC3CO3)cc2)cc1 (stereo unspecified)
active: [6] active; positive | [8] active; positive

Nc1ccccc1C(=O)C[C@H](N)C(=O)O
inactive: [13] inactive; negative

CC(=O)Nc1cccc(C)c1
inactive: Test System: AMES SALMONELLA TYPHIMURIUM, Strain/Indicator: TA97, Metabolic Activation: HAMSTER, LIVER, S-9, AROCLOR 1254 (10 OR 30%), Method: PREINCUBATION inactive; negative | [1] inactive; negative | Test System: AMES SALMONELLA TYPHIMURIUM, Strain/Indicator: TA97, Metabolic Activation: RAT, LIVER, S-9, AROCLOR 1254 (10 OR 30%), Method: PREINCUBATION inactive; negative | Test System: AMES SALMONELLA TYPHIMURIUM, Strain/Indicator: TA98, Metabolic Activation: HAMSTER, LIVER, S-9, AROCLOR 1254 (10 OR 30%), Method: PREINCUBATION inactive; negative | [2] inactive; negative | Test System: AMES SALMONELLA TYPHIMURIUM, Strain/Indicator: TA98, Metabolic Activation: RAT, LIVER, S-9, AROCLOR 1254 (10 OR 30%), Method: PREINCUBATION inactive; negative | Test System: AMES SALMONELLA TYPHIMURIUM, Strain/Indicator: TA100, Metabolic Activation: HAMSTER, LIVER, S-9, AROCLOR 1254 (10 OR 30%), Method: PREINCUBATION inactive; negative | [13] inactive; negative | Test System: AMES SALMONELLA TYPHIMURIUM, Strain/Indicator: TA100, Metabolic Activation: RAT, LIVER, S-9, AROCLOR 1254 (10 OR 30%), Method: PREINCUBATION inactive; negative | Test System: AMES SALMONELLA TYPHIMURIUM, Strain/Indicator: TA1535, Metabolic Activation: HAMSTER, LIVER, S-9, AROCLOR 1254 (10 OR 30%), Method: PREINCUBATION inactive; negative | [3] inactive; negative | Test System: AMES SALMONELLA TYPHIMURIUM, Strain/Indicator: TA1535, Metabolic Activation: RAT, LIVER, S-9, AROCLOR 1254 (10 OR 30%), Method: PREINCUBATION inactive; negative
